Read-outs that look alike come from different tables or passages of the source.
Assays:
A. calcoaceticus No. 4 = experiment: in vitro antibacterial activity, agar plate dilution method (MIC); format: cell-based, Acinetobacter calcoaceticus; conditions: Acinetobacter calcoaceticus, NO.4, 16 h, 10^6 CFU/ml
Summary of the method: (§1)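 Plate dilution on Mueller Hinton agar with various antibiotic concentrations. Inoculum size was 10^6 CFU/ml, incubation 16 hours at 37° C.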

Ps. cepacia 23 = experiment: as above; format: cell-based, Pseudomonas cepacia; conditions: read-out: Minimum Inhibitory Concentration (MIC)
Summary of the method: as §1

S. marcescens IAM 1184 = experiment: as above; format: cell-based; conditions: Serratia marcescens, IAM1184, 16 h, read-out: Minimum Inhibitory Concentration (MIC)
Summary of the method: as §1

E. coli NIHJ JC2 = experiment: as above; format: cell-based; conditions: Escherichia coli, NIHJJC2, 16 h, read-out: Minimum Inhibitory Concentration (MIC), E. coli NIHJ JC2, 10^6 CFU/ml, 37° C.
Summary of the method: as §1

K. pneumoniae PCI-602 = experiment: as above; format: cell-based; conditions: Klebsiella pneumoniae, PCI602, 16 h, read-out: Minimum Inhibitory Concentration (MIC), K. pneumoniae PCI-602; 10^6 CFU/ml
Summary of the method: as §1

P. vulgaris No. 33 = experiment: as above; format: cell-based; conditions: Proteus vulgaris, NO.33, 16 h, read-out: Minimum Inhibitory Concentration (MIC), *P. vulgaris No. 33, lactamase-producing strain; 10^6 CFU/ml
Summary of the method: as §1

K. pneumoniae No. 42 = experiment: as above; format: cell-based; conditions: Klebsiella pneumoniae, NO.42, 16 h, read-out: Minimum Inhibitory Concentration (MIC), *K. pneumoniae No. 42, lactamase-producing strain; 10^6 CFU/ml
Summary of the method: as §1

S. aureus 209P NIHJ-JC1 = experiment: as above; format: cell-based; conditions: Staphylococcus aureus, 16 h, read-out: Minimum Inhibitory Concentration (MIC)
Summary of the method: as §1

S. marcescens No. 16-2 = experiment: as above; format: cell-based; conditions: Serratia marcescens, NO.162, 16 h
Summary of the method: as §1

K. oxytoca GN10650 = experiment: as above; format: cell-based; conditions: Klebsiella oxytoca, GN10650, 16 h, read-out: Minimum Inhibitory Concentration (MIC), *K. oxytoca GN10650, lactamase-producing strain; 10^6 CFU/ml
Summary of the method: as §1

P. vulgaris HX-19 = experiment: as above; format: cell-based; conditions: Proteus vulgaris, HX19, 16 h, read-out: Minimum Inhibitory Concentration (MIC)
Summary of the method: as §1

E. cloacae 963 = experiment: as above; format: cell-based; conditions: 10^6 CFU/ml
Summary of the method: as §1

E. cloacae Nek 39 = experiment: as above; format: cell-based; conditions: Enterobacter cloacae, NEK39, 16 h, 10^6 CFU/ml
Summary of the method: as §1

E. coli GN5482 = experiment: as above; format: cell-based; conditions: Escherichia coli, GN5482, 16 h, read-out: Minimum Inhibitory Concentration (MIC), *E. coli GN5482, lactamase-producing strain; 10^6 CFU/ml
Summary of the method: as §1

M. morganii GN5407 = experiment: as above; format: cell-based; conditions: Morganella morganii, GN5407, 16 h, read-out: Minimum Inhibitory Concentration (MIC), *M. morganii GN5407, lactamase-producing strain; 10^6 CFU/ml
Summary of the method: as §1

E. coli CSH2 (RK1) = experiment: microbe, parasite or virus in culture; format: cell-based; conditions: Escherichia coli, 16 h, read-out: Minimum Inhibitory Concentration (MIC), *E. coli CSH2 (RK1), lactamase-producing strain; 10^6 CFU/ml
Summary of the method: as §1

E. coli CSH(RE45) = experiment: microbe, parasite or virus in culture; format: cell-based; conditions: Escherichia coli, 16 h, read-out: Minimum Inhibitory Concentration (MIC), *E. coli CSH(RE45), lactamase-producing strain; 10^6 CFU/ml
Summary of the method: as §1

Ps. aeruginosa IF03445 = experiment: in vitro antibacterial activity, agar plate dilution method (MIC); format: cell-based, Pseudomonas aeruginosa; conditions: Pseudomonas aeruginosa, 10^6 CFU/ml
Summary of the method: as §1

Ps. aeruginosa AK 109 = experiment: as above; format: cell-based, Pseudomonas aeruginosa; conditions: Pseudomonas aeruginosa, AK109, 16 h, read-out: Minimum Inhibitory Concentration (MIC)
Summary of the method: as §1

Ps. aeruginosa AKR17 = experiment: as above; format: cell-based, Pseudomonas aeruginosa; conditions: Pseudomonas aeruginosa, read-out: Minimum Inhibitory Concentration (MIC)
Summary of the method: as §1

[1] = read-out: Minimum Inhibitory Concentration (MIC), A. calcoaceticus No. 4
[2] = Burkholderia cepacia, 16 h, Ps. cepacia 23, 10^6 CFU/ml
[3] = S. marcescens IAM 1184, 10^6 CFU/ml
[4] = S. aureus 209P NIHJ-JC1, 10^6 CFU/ml, 37° C., 16 hours
[5] = read-out: Minimum Inhibitory Concentration (MIC)
[6] = read-out: Minimum Inhibitory Concentration (MIC), *E. cloacae Nek 39, lactamase-producing strain
[7] = IF03445, 16 h, read-out: Minimum Inhibitory Concentration (MIC), Ps. aeruginosa IF03445
[8] = A. calcoaceticus No. 4, read-out: Minimum Inhibitory Concentration (MIC)
[9] = Enterobacter cloacae, 963, 16 h, read-out: Minimum Inhibitory Concentration (MIC), E. cloacae 963
[10] = 16 h, Ps. aeruginosa AKR17, 10^6 CFU/ml

Compound	MIC (A. calcoaceticus No. 4; [1])	MIC (Ps. cepacia 23; [2])	MIC (S. marcescens IAM 1184; [3])	MIC (E. coli NIHJ JC2)	MIC (K. pneumoniae PCI-602)	MIC (P. vulgaris No. 33)	MIC (K. pneumoniae No. 42)	MIC (S. aureus 209P NIHJ-JC1; [4])	MIC (S. marcescens No. 16-2; [5])	MIC (K. oxytoca GN10650)	MIC (P. vulgaris HX-19)	MIC (E. cloacae Nek 39; [6])	MIC (E. coli GN5482)	MIC (M. morganii GN5407)	MIC (E. coli CSH2 (RK1))	MIC (E. coli CSH(RE45))	MIC (Ps. aeruginosa IF03445; [7])	MIC (Ps. aeruginosa AK 109)	MIC (Ps. aeruginosa AKR17; AKR17, 16 h)	MIC (E. cloacae 963; [9])	other results
Nc1nc(/C(=N/OC2(C(=O)O)CC2)C(=O)N[C@@H]2C(=O)N3C(C(=O)O)=C(CSc4ncc(-c5ccc(O)c(O)c5)o4)CS[C@H]23)cs1 [Ex. 66, disodium 7β-[2-(2-aminothiazol-4-yl)-2-(1-carboxylate-1-cyclopropoxyimino)acetamido]-3-[5-(3,4-dihydroxyphenyl)oxazol-2-yl]thiomethyl-3-cephem-4-carboxylate]	0.1 µg/mL	< 0.006 µg/mL	0.05 µg/mL	0.78 µg/mL	< 0.006 µg/mL	0.025 µg/mL	0.1 µg/mL	25 µg/mL	3.12 µg/mL	0.1 µg/mL	0.0125 µg/mL	0.1 µg/mL	1.56 µg/mL	0.1 µg/mL	0.0125 µg/mL	0.05 µg/mL	0.78 µg/mL	0.39 µg/mL	3.12 µg/mL	–	MIC (E. cloacae 963; Enterobacter cloacae, 16 h, E. cloacae 963, read-out: Minimum Inhibitory Concentration (MIC)): 0.2 µg/mL
CC(C)(O/N=C(\C(=O)N[C@@H]1C(=O)N2C(C(=O)O)=C(CSc3nc(-c4ccccc4)c(CC(=O)O)s3)CS[C@H]12)c1csc(N)n1)C(=O)O [compound 16, trisodium 7β-[2-(2-aminothiazol-4-yl)-2-(1-carboxylate-1-methylethoxyimino)acetamido]-3-(5-carboxylatemethyl-4-phenylthiazol-2-yl)thio-methyl-3-cephem-4-carboxylate, reference compound]	–	–	–	6.25 µg/mL	1.56 µg/mL	0.2 µg/mL	3.12 µg/mL	50 µg/mL	–	3.12 µg/mL	–	–	6.25 µg/mL	1.56 µg/mL	6.25 µg/mL	3.12 µg/mL	–	–	–	6.25 µg/mL	MIC (A. calcoaceticus No. 4; [8]): > 100 µg/mL; MIC (Ps. cepacia 23; Burkholderia cepacia, 23, 16 h): 6.25 µg/mL; MIC (S. marcescens IAM 1184): 1.56 µg/mL; MIC (S. marcescens No. 16-2; *S. marcescens No. 16-2, lactamase-producing strain, 10^6 CFU/ml, read-out: Minimum Inhibitory Concentration (MIC)): 50 µg/mL; MIC (P. vulgaris HX-19; P. vulgaris HX-19, 10^6 CFU/ml): < 0.006 µg/mL; MIC (E. cloacae Nek 39; *E. cloacae Nek 39, lactamase-producing strain, read-out: Minimum Inhibitory Concentration (MIC)): 25 µg/mL; MIC (Ps. aeruginosa IF03445; 16 h, Ps. aeruginosa IF03445, read-out: Minimum Inhibitory Concentration (MIC)): 50 µg/mL; MIC (Ps. aeruginosa AK 109; Ps. aeruginosa AK 109, 10^6 CFU/ml): 50 µg/mL; MIC (Ps. aeruginosa AKR17; [10]): > 100 µg/mL
Nc1nc(/C(=N/OC(C(=O)O)c2ccc(O)c(O)c2)C(=O)N[C@@H]2C(=O)N3C(C(=O)O)=C(CSc4ncc(-c5ccc(O)c(O)c5)o4)CS[C@H]23)cs1 (stereo partly drawn) [Ex. 65, disodium 7β-(2-(2-aminothiazol-4-yl)-2-[(α-carboxylate-3,4-dihydroxybenzyl)oxyiminol]-acetamido}-3-[5-(3,4-dihydroxyphenyl)oxazol-2-yl]-thiomethyl-3-cephem-4-carboxylate]	–	< 0.006 µg/mL	0.2 µg/mL	1.56 µg/mL	< 0.006 µg/mL	0.1 µg/mL	0.2 µg/mL	–	12.5 µg/mL	0.2 µg/mL	–	0.78 µg/mL	6.25 µg/mL	0.2 µg/mL	0.05 µg/mL	0.05 µg/mL	1.56 µg/mL	0.39 µg/mL	–	0.78 µg/mL	MIC (A. calcoaceticus No. 4; [8]): 0.05 µg/mL; MIC (S. aureus 209P NIHJ-JC1): 3.12 µg/mL; MIC (P. vulgaris HX-19; P. vulgaris HX-19, 10^6 CFU/ml): 0.1 µg/mL; MIC (Ps. aeruginosa AKR17; [10]): 0.2 µg/mL
CCON=C(C(=O)N[C@@H]1C(=O)N2C(C(=O)[O-])=C(CSc3nc(-c4ccc(O)c(O)c4)cs3)CS[C@H]12)c1csc(N)n1.[Na+] [compound 48, sodium 7β-[2-(2-aminothiazol-4-yl)-2-ethoxyiminoacetamido]-3-[4-(3,4-dihydroxyphenyl)-thiazol-2-yl]thiomethyl-3-cephem-4-carboxylate]	0.39 µg/mL	–	–	0.39 µg/mL	< 0.006 µg/mL	0.05 µg/mL	0.05 µg/mL	–	–	1.56 µg/mL	0.0125 µg/mL	0.78 µg/mL	1.56 µg/mL	0.1 µg/mL	0.025 µg/mL	0.05 µg/mL	1.56 µg/mL	0.39 µg/mL	50 µg/mL	0.1 µg/mL	MIC (Ps. cepacia 23; Burkholderia cepacia, 23, 16 h): 0.1 µg/mL; MIC (S. marcescens IAM 1184): 0.1 µg/mL; MIC (S. aureus 209P NIHJ-JC1): 3.12 µg/mL; MIC (S. marcescens No. 16-2; read-out: Minimum Inhibitory Concentration (MIC), *S. marcescens No. 16-2, lactamase-producing strain, 10^6 CFU/ml): 6.25 µg/mL

— US5061794A, “Cephalosporin derivatives, and antibacterial agents” (priority 1986, dated 1991)
